Laboratory results: ChEMBL document CHEMBL1122139, “Importance of the aromatic ring in adrenergic amines. 7. Comparison of the stereoselectivity of norepinephrine N-methyltransferase for aromatic vs. nonaromatic substrates and inhibitors” (J Med Chem, 1982)
Values joined by “and” are separate entries in the source; they are usually repeats but may differ in a detail not shown here. Equal entries are not always repeated.

What was measured:
[1] = molecular target: T1, Phenylethanolamine N-methyltransferase (Bos taurus, UniProt P10938); test: (§1) Inhibitory activity against Norepinephrine N-methyl-transferase of bovine adrenal glands; type: tissue-based, Adrenal gland
T1 sequence (P10938 whole entry): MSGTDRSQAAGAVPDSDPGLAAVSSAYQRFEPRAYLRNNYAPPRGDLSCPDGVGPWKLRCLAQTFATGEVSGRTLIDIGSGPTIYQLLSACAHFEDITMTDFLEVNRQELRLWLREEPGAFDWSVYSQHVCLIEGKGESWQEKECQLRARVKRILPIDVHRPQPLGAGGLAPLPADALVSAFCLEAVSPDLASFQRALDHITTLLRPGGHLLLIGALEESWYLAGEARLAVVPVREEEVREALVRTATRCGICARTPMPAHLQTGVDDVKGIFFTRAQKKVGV

[2] = Vmax value was calculated in terms of nmoles of product per mg of protein per minute
[3] = Vmax/Km x100 value of the compound
[4] = compound: NC[C@H](O)C1CCCCCCC1; test: as §1; type: tissue-based; details: Adrenal gland
[5] = compound: NC[C@@H](O)C1CCCCCCC1; test: as §1; type: tissue-based; details: Adrenal gland
[6] = compound: NCC(O)C1CCCCCCC1; test: as §1; type: tissue-based; details: Adrenal gland
[7] = compound: NC[C@@H](O)C1CCCCC1; test: as §1; type: tissue-based; details: Adrenal gland
[8] = compound: NC[C@@H](O)c1ccccc1; test: as §1; type: tissue-based; details: Adrenal gland
[9] = compound: NC[C@H](O)C1CCCCC1; test: as §1; type: tissue-based; details: Adrenal gland
[10] = compound: NC[C@H](O)c1ccccc1; test: as §1; type: tissue-based; details: Adrenal gland

C[C@@H](N)CC1CCCCCCC1
Ki [1]: 157 µM

NC[C@@H](O)C1CCCCC1
Vmax [2]: 0.64 nmol/min/mg
Vmax/Km x100 [3]: 1.88

NCC(O)C1CCCCC1 (configuration not stated)
Vmax [2]: 0.99 nmol/min/mg
Vmax/Km x100 [3]: 2.47

CC(N)CC1CC=CCC1 (configuration not stated)
Ki [1]: 110 µM

C[C@H](N)Cc1ccccc1 (stereo in doubt; 1c) [DEXTROAMPHETAMINE]
Ki [1]: 1380 µM

C[C@H](N)CC1CCCCC1
Ki [1]: 22 µM

C[C@@H](N)c1ccccc1
Ki [1]: 1680 µM

NC[C@H](O)C1CCCCCCC1
Vmax [2]: 0.38 nmol/min/mg
Vmax/Km x100 [3]: 0.88

NC[C@@H](O)c1ccccc1 (stereo in doubt; 9b)
Vmax [2]: 0.92 nmol/min/mg
Vmax/Km x100 [3]: 0.93

NCCC1CCCCC1
Ki [1]: 41 µM

NC[C@@H](O)C1CCCCCCC1
Vmax [2]: 0.27 nmol/min/mg
Vmax/Km x100 [3]: 0.67

C[C@H](N)c1ccccc1
Ki [1]: 149 µM

NC[C@H](O)c1ccccc1
Vmax [2]: 4.85 nmol/min/mg
Vmax/Km x100 [3]: 1.69

C[C@@H](N)C1CCCCC1
Ki [1]: 412 µM

C[C@H](N)Cc1ccccc1 (stereo in doubt; 1b) [DEXTROAMPHETAMINE]
Ki [1]: 422 µM

C[C@H](N)C1CCCCC1
Ki [1]: 44 µM

NCC(O)C1CCCCCCC1 (configuration not stated)
Vmax [2]: 0.27 nmol/min/mg
Vmax/Km x100 [3]: 0.62

CC(N)CC1CCCCC1 (configuration not stated)
Ki [1]: 109 µM

C[C@@H](N)CC1CCCCC1
Ki [1]: 290 µM

NC[C@@H](O)c1ccccc1 (stereo in doubt; 9a)
Vmax [2]: 1.75 nmol/min/mg
Vmax/Km x100 [3]: 1.62

C[C@H](N)CC1CCCCCCC1
Ki [1]: 34 µM

NCCc1ccccc1 [PHENETHYLAMINE]
Ki [1]: 467 µM

NC[C@H](O)C1CCCCC1
Vmax [2]: 1.85 nmol/min/mg
Vmax/Km x100 [3]: 2.43

CC(N)CC1CCCCCCC1 (configuration not stated)
Ki [1]: 86 µM

CC(N)Cc1ccccc1 (configuration not stated) [AMPHETAMINE]
Ki [1]: 740 µM

CC(N)c1ccccc1 (configuration not stated)
Ki [1]: 460 µM

B1: Phenylethanolamine N-methyltransferase (Bos taurus), P10938 (protein)
chain: T1 sequence (P10938 whole entry)
Km [4]: 43 µM
Km [5]: 40 µM
Km [6]: 43 µM
Km [7]: 34 µM
Km [8]: 96 µM and 108 µM
Km [9]: 76 µM
Km [10]: 286 µM
